Read-outs that look alike come from different tables or passages of the source.
How the values were obtained:
Type in all cases: in vivo
[1] = tested on: bermudagrass (Cynodon dactylon); experiment: Test C pre/postemergence; conditions: Cynodon dactylon; for pest or weed control at 31 g/ha: 31 g ai/ha; for pest or weed control at 62 g/ha: 62 g ai/ha; for pest or weed control at 125 g/ha: 125 g ai/ha; for pest or weed control at 125 g/ha / pest or weed control at 250 g/ha: scale 0 to 100; for pest or weed control at 250 g/ha: 250 g ai/ha
Excerpt: (§1) Seeds or nutlets of plant species selected from bermudagrass (Cynodon dactylon), Surinam grass (Brachiaria decumbens), cocklebur (Xanthium strumarium), corn (Zea mays), crabgrass (Digitaria sanguinalis), woolly cupgrass (Eriochloa villosa), giant foxtail (Setaria faberii), goosegrass (Eleusine indica), johnsongrass (Sorghum halepense), kochia (Kochia scoparia), lambsquarters (Chenopodium album), morningglory (Ipomoea coccinea), eastern black nightshade (Solanum ptycanthum), yellow nutsedge (Cyperus esculentus), pigweed (Amaranthus retroflexus), common ragweed (Ambrosia elatior), soybean (Glycine max), common (oilseed) sunflower (Helianthus annuus), and velvetleaf (Abutilon theophrasti) were planted and treated preemergence with test chemicals formulated in a non-phytotoxic solvent mixture which included a surfactant.
(§2) At the same time, plants selected from these crop and weed species and also winter barley (Hordeum vulgare), blackgrass (Alopecurus myosuroides), canarygrass (Phalaris minor), chickweed (Stellaria media), downy brome (Bromus tectorum), green foxtail (Setaria viridis), Italian ryegrass (Lolium multiflorum), wheat (Triticum aestivum), wild oat (Avena fatua) and windgrass (Apera spica-venti) were treated with postemergence applications of some of the test chemicals formulated in the same manner. Plants ranged in height from 2 to 18 cm (1- to 4-leaf stage) for postemergence treatments. Plant species in the flooded paddy test consisted of rice (Oryza sativa), umbrella sedge (Cyperus difformis), duck salad (Heteranthera limosa) and barnyardgrass (Echinochloa crus-galli) grown to the 2-leaf stage for testing. Treated plants and controls were maintained in a greenhouse for 12 to 14 days, after which time all species were compared to controls and visually evaluated. Plant response ratings, summarized in Table C, are based on a scale of 0 to 100 where 0 is no effect and 100 is complete control. A dash (-) response means no test result.

[2] = tested on: johnsongrass (Sorghum halepense); experiment: Test C pre/postemergence; conditions: Sorghum halepense; for pest or weed control at 31 g/ha: 31 g ai/ha; for pest or weed control at 62 g/ha: 62 g ai/ha; for pest or weed control at 125 g/ha: 125 g ai/ha; for pest or weed control at 250 g/ha: 250 g ai/ha
Excerpt: as §1, §2

[3] = tested on: lambsquarters (Chenopodium album); experiment: Test C pre/postemergence; conditions: Chenopodium album; for pest or weed control at 31 g/ha: 31 g ai/ha; for pest or weed control at 62 g/ha: 62 g ai/ha; for pest or weed control at 125 g/ha: 125 g ai/ha; for pest or weed control at 250 g/ha: 250 g ai/ha
Excerpt: as §1, §2

[4] = tested on: soybean (Glycine max); experiment: Test C pre/postemergence; conditions: Glycine max; for plant injury at 31 g/ha: 31 g ai/ha; for plant injury at 62 g/ha: 62 g ai/ha; for plant injury at 125 g/ha: 125 g ai/ha; for plant injury at 250 g/ha: 250 g ai/ha
Excerpt: as §1, §2

[5] = tested on: chickweed (Stellaria media); experiment: Test C postemergence; conditions: Stellaria media, post-emergence
Excerpt: as §1, §2

[6] = post-emergence, Postemergence, read-out: Plant response rating, Bermudagrass
[7] = pre-emergence, Preemergence, scale 0 to 100, 0 no effect, 100 complete control, read-out: Plant response rating, Bermudagrass
[8] = pre-emergence, Preemergence, read-out: Plant response rating, Bermudagrass
[9] = post-emergence, Postemergence, scale 0 to 100 (0 no effect, 100 complete control), read-out: Johnsongrass plant response rating
[10] = pre-emergence, Preemergence, scale 0 to 100, 0 no effect, 100 complete control, read-out: Plant response rating, Johnsongrass
[11] = pre-emergence, Preemergence, scale 0 to 100, read-out: Plant response rating, Johnsongrass
[12] = post-emergence, Postemergence, scale 0 to 100 (0 no effect, 100 complete control), read-out: Lambsquarters plant response rating
[13] = pre-emergence, Preemergence, scale 0 to 100, 0 no effect, 100 complete control, read-out: Plant response rating, Lambsquarters
[14] = pre-emergence, Preemergence, scale 0 to 100, read-out: Plant response rating, Lambsquarters
[15] = post-emergence, Postemergence, scale 0 to 100 (0 no effect, 100 complete control), read-out: Soybean plant response rating
[16] = pre-emergence, Preemergence, scale 0 to 100, 0 no effect, 100 complete control, read-out: Plant response rating, Soybean
[17] = pre-emergence, Preemergence, scale 0 to 100, read-out: Plant response rating, Soybean

COC(=O)c1nc(C2CC2)nc(N)c1Cl [Compound 9, methyl 6-amino-5-chloro-2-cyclopropyl-4-pyrimidinecarboxylate]
70%: pest or weed control at 125 g/ha [1, 6]
90%: pest or weed control at 250 g/ha [2, 11] | pest or weed control at 31 g/ha ([3]; post-emergence, Postemergence, read-out: Plant response rating (scale of 0 to 100), Lambsquarters)
80%: pest or weed control at 250 g/ha [1, 6] | pest or weed control at 125 g/ha [2, 9]
45%: pest or weed control at 62 g/ha [2, 10]
95%: pest or weed control at 62 g/ha [3, 12] | pest or weed control at 31 g/ha [3, 13] | plant injury at 31 g/ha ([4]; post-emergence, Postemergence, read-out: Plant response rating (scale of 0 to 100), Soybean)
15%: pest or weed control at 31 g/ha [2, 10] | pest or weed control at 31 g/ha ([5]; 31 g ai/ha, read-out: Plant response rating (scale of 0 to 100), Chickweed)
85%: pest or weed control at 250 g/ha ([2]; post-emergence, Postemergence, scale 0 to 100, read-out: Plant response rating, Johnsongrass) | pest or weed control at 62 g/ha ([5]; 62 g ai/ha, scale 0 to 100 (0 no effect, 100 complete control), read-out: Chickweed plant response rating)
65%: pest or weed control at 62 g/ha ([1]; post-emergence, Postemergence, scale 0 to 100 (0 no effect, 100 complete control), read-out: Bermudagrass plant response rating) | pest or weed control at 62 g/ha [2, 9] | pest or weed control at 125 g/ha [2, 11]
100%: pest or weed control at 31 g/ha [1, 7] | pest or weed control at 62 g/ha [1, 7] | pest or weed control at 125 g/ha [1, 8] | pest or weed control at 250 g/ha [1, 8] | pest or weed control at 125 g/ha [3, 12] | pest or weed control at 250 g/ha ([3]; post-emergence, Postemergence, scale 0 to 100, read-out: Plant response rating, Lambsquarters) | pest or weed control at 62 g/ha [3, 13] | pest or weed control at 125 g/ha [3, 14] | pest or weed control at 250 g/ha [3, 14] | plant injury at 62 g/ha [4, 15] | plant injury at 125 g/ha [4, 15] | plant injury at 250 g/ha ([4]; post-emergence, Postemergence, scale 0 to 100, read-out: Plant response rating, Soybean) | plant injury at 31 g/ha [4, 16] | plant injury at 62 g/ha [4, 16] | plant injury at 125 g/ha [4, 17] | plant injury at 250 g/ha [4, 17] | pest or weed control at 125 g/ha ([5]; 125 g ai/ha, scale 0 to 100, read-out: Plant response rating, Chickweed) | pest or weed control at 250 g/ha ([5]; 250 g ai/ha, scale 0 to 100, read-out: Plant response rating, Chickweed)
55%: pest or weed control at 31 g/ha ([2]; post-emergence, Postemergence, read-out: Plant response rating (scale of 0 to 100), Johnsongrass)
60%: pest or weed control at 31 g/ha ([1]; post-emergence, Postemergence, read-out: Plant response rating (scale of 0 to 100), Bermudagrass)
